Test results as given in US20250154163A1, “Pyrimidinone-Containing 17-Beta-Hydroxysteroid Dehydrogenase Type 13 Inhibitors” (ENANTA PHARMACEUTICALS, INC., priority 2023, published 2025).

Target: T1, human HSD17β13 (stable HEK293T cell line overexpressing human HSD17β13) (Homo sapiens, UniProt Q7Z5P4)
T1 construct: expressed in transfected cells
T1 sequence (Q7Z5P4 20-300): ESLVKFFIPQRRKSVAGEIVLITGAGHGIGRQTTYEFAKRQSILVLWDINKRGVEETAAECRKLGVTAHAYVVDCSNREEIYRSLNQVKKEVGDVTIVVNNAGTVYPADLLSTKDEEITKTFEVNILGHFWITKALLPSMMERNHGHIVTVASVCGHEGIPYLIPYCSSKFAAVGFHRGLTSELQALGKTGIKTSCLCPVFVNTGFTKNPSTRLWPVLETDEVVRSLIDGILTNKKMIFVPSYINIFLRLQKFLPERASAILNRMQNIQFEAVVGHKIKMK
Assay: HSD17β13 inhibitor cell-based screening assay (conversion of estradiol-d2 to estrone-d2 by RF-MS)
Conditions: conversion of estradiol-d2 to estrone-d2 after 24 hours
Experimental: The purpose of this cell-based assay is to determine the cellular efficacy (IC50) of HSD17β13 inhibitors in a stable HEK293 T cell line overexpressing human HSD17β13. The assay measures by Rapid Fire mass-spectrometry (RF-MS) the conversion of estradiol-d2 to estrone-d2. Cytotoxicity was also assessed via luminescent signal generated by the ATPlite viability assay reagent. To screen compounds for HSD17013 inhibition, black 384-well plates were seeded with 1000× concentration of compounds in a 9-point 1:3 dilution curve (final top concentration of 10 μM) as well as 1000× concentration of 17β-estradiol-d2 (5 μM final concentration) added to all wells. HEK293T cells stably overexpressing human HSD17013 and the parent HEK293T cell lines were then seeded in the plates on top of the compounds and substrate in MEM media containing 1% charcoal/dextran-treated FBS. Supernatant is collected and immediately frozen after 24 hours of incubation, and conversion of estradiol-d2 to estrone-d2 is measured at Pure Honey by RF-MS. The remaining media in the plate was removed from the wells and replaced with ATPlite viability assay reagent. Luminescent signal from the ATPlite reagent was measured on the Envision plate reader. 10 μL of 10 mM compounds stocks (1000×) dissolved in DMSO were pipetted into the appropriate wells on the 384 LDV plate (Labcyte; cat. no.: LP-0200) and the appropriate volumes of DMSO solvent were included onto an intermediate plate to further dilute the compound stocks to complete the 9-pt dose curve (final top concentration of 10 μM). 10 μL per well of 5 mM estradiol-d2 (1000×) (Cayman; item no.: 9002846) (5 μM final concentration) dissolved in DMSO was seeded into the appropriate number of wells on the same source plate as the compounds. The Echo 650 (Labcyte) was used for compound dilutions and dispensing both the compounds and the substrate onto a dry 384-well black assay plate (Falcon/Corning; cat. no.:353962). Afterwards, cells were immediately counted and seeded onto the plate. Cells were cultured for expansion in EMEM (ATCC; cat. no.: 30-2003)+10% FBS (Hyclone; cat. no.: SH3007003)+1×PenStrep (Gibco; cat. no.: 15140-122). All media for stable cell line overexpressing HSD17013 also included […] zeocin (Invitrogen; cat. no.: 46-0509) for selection. To prepare cells for seeding into the 384-well assay plate, cells were trypsinized for 3 minutes in the incubator. The Trypsin-EDTA (0.25%) (Gibco; cat. no.: 25200056) was neutralized with EMEM complete culture medium warmed to 37° C. Cells were then centrifugated at 300×g for 5 minutes at room temperature. The cell pellet was resuspended in phenol red-free MEM (Gibco; cat. no.: 51200-038)+1% charcoal/dextran-treated FBS (Hyclone; cat. no.: SH3006803) and 1×PenStrep warmed to 37° C. Cells were then counted using the TC20 automated cell-counter (Bio-Rad) and disposable duel chamber counting slides (Bio-Rad; cat. no.: 1450016) for a cell density of 1.5E5 cells/mL to then seed into the assay plate at 7.5E3 cells/well with 50 μL of media per well. Prior to the 24-hour time point, a solution of 1% formic acid (10×) (Honeywell; cat. no.: 94318) in MEM phenol red-free MEM+1% charcoal/dextran-treated FBS and 1×PenStrep was made. ATPlite luminescent ATP detection reagent (PerkinElmer; cat. no.: 6016739) was prepared according to the manufacturer's instructions. A new 384-well Falcon plate (collection plate) was seeded with 2 μL per well of 10× formic acid and then 18 μL of cell supernatant was added onto the formic acid, resulting in a 20 μL per well solution of 0.1% formic acid (1×) in supernatant. The plate of collected supernatant was immediately frozen on dry ice before being stored at −80° C. The collection plate was shipped to Momentum Biotechnologies for analysis. The remaining supernatant in the assay plate was discarded and 25 μL of ATPlite reagent was added to each well. […]

Compound	IC50 [nM]
Cc1cc(-c2nc3sc4c(O)c(Cl)ccc4c3c(=O)n2Cc2cnco2)c(C2CC2)s1 [Example 91]	< 100
O=c1c2c(nc(-c3ccc(C(F)(F)F)nc3C3CC3)n1Cc1cnco1)sc1c(O)c(Cl)ccc12 [Example 92]	< 100
COc1ccc(-c2nc3sc4c(O)c(Cl)ccc4c3c(=O)n2Cc2cnco2)c(C2CC2)n1 [Example 93]	< 100
Cc1cc(C2CC2)c(-c2nc3sc4c(O)c(Cl)ccc4c3c(=O)n2Cc2cnco2)s1 [Example 94]	< 100
COCCn1cc(Cn2c(-c3ccc(OC)cc3C3CC3)nc3sc4c(O)c(Cl)ccc4c3c2=O)cn1 [Example 95]	< 100
N#Cc1ccc(-c2nc3sc4c(O)c(Cl)ccc4c3c(=O)n2Cc2cc(C(F)(F)F)no2)c(C2CC2)c1 [Example 98]	< 100
O=c1c2c(nc(-c3ncc(C(F)(F)F)cc3C3CC3)n1Cc1ccc(C(F)(F)F)nc1)sc1c(O)c(Cl)ccc12 [Example 100]	< 100
O=c1c2c(nc(-c3ncc(F)cc3C3CC3)n1Cc1cnc(C(F)(F)F)nc1)sc1c(O)c(Cl)ccc12 [Example 101]	< 100
O=c1c2c(nc(-c3ncc(F)cc3C3CC3)n1Cc1ccc(C(F)(F)F)nc1)sc1c(O)c(Cl)ccc12 [Example 102]	< 100
O=c1c2c(nc(-c3ncc(Cl)cc3C3CC3)n1Cc1cc(C(F)(F)F)no1)sc1c(O)c(Cl)ccc12 [Example 103]	< 100
COc1cc(C2CC2)c(-c2nc3sc4c(O)c(Cl)ccc4c3c(=O)n2Cc2cnco2)cc1Br [Example 104, 2-(5-bromo-2-cyclopropyl-4-methoxyphenyl)-7-chloro-8-hydroxy-3-(oxazol-5-ylmethyl)benzo[4,5]thieno[2,3-d]pyrimidin-4(3H)-one]	< 100
COc1cc(C2CC2)c(-c2nc3sc4c(O)c(Cl)ccc4c3c(=O)n2Cc2cnco2)cc1C1CC1 [Example 107, 7-chloro-2-(2,5-dicyclopropyl-4-methoxyphenyl)-8-hydroxy-3-(oxazol-5-ylmethyl)benzo[4,5]thieno[2,3-d]pyrimidin-4(3H)-one]	100 to 500
COc1cc(C2CC2)c(-c2nc3sc4c(O)c(Cl)ccc4c3c(=O)n2Cc2cnco2)cc1C [Example 108]	< 100
COc1cc(C2CC2)c(-c2nc3sc4c(O)c(Cl)ccc4c3c(=O)n2Cc2cnco2)cc1C1CCCC1 [Example 109, 7-chloro-2-(5-cyclopentyl-2-cyclopropyl-4-methoxyphenyl)-8-hydroxy-3-(oxazol-5-ylmethyl)benzo[4,5]thieno[2,3-d]pyrimidin-4(3H)-one]	500 to 1000
O=c1c2c(nc(-c3ccc(-c4ncco4)cc3C3CC3)n1Cc1cnco1)sc1c(O)c(Cl)ccc12 [Example 110, 7-chloro-2-(2-cyclopropyl-4-(oxazol-2-yl)phenyl)-8-hydroxy-3-(oxazol-5-ylmethyl)benzo[4,5]thieno[2,3-d]pyrimidin-4(3H)-one]	< 100
N#Cc1ccc(-c2nc3sc4c(O)c(Cl)ccc4c3c(=O)n2Cc2cnco2)c(C2CC2)c1 [Example 111, 4-(7-chloro-8-hydroxy-3-(oxazol-5-ylmethyl)-4-oxo-3,4-dihydrobenzo[4,5]thieno[2,3-d]pyrimidin-2-yl)-3-cyclopropylbenzonitrile]	< 100

Results, then the molecule that gave them:

IC50 [nM]	Compound
< 100	Cc1ncc(Cn2c(-c3cc(F)c(F)cc3C3CC3)nc3sc4c(O)c(Cl)ccc4c3c2=O)o1 [Example 61, 7-chloro-2-(2-cyclopropyl-4,5-difluorophenyl)-8-hydroxy-3-((2-methyloxazol-5-yl)methyl)benzo[4,5]thieno[2,3-d]pyrimidin-4(3H)-one]
< 100	O=c1c2c(nc(-c3cc(F)c(F)cc3C3CC3)n1Cc1ccno1)sc1c(O)c(Cl)ccc12 [Example 62, 7-chloro-2-(2-cyclopropyl-4,5-difluorophenyl)-8-hydroxy-3-(isoxazol-5-ylmethyl)benzo[4,5]thieno[2,3-d]pyrimidin-4(3H)-one]
< 100	O=c1c2c(nc(-c3cc(F)c(F)cc3C3CC3)n1Cc1cc(C(F)F)no1)sc1c(O)c(Cl)ccc12 [Example 65, 7-chloro-2-(2-cyclopropyl-4,5-difluorophenyl)-3-((3-(difluoromethyl)isoxazol-5-yl)methyl)-8-hydroxybenzo[4,5]thieno[2,3-d]pyrimidin-4(3H)-one]
< 100	O=c1c2c(nc(-c3ccc(C(F)(F)F)nc3C3CC3)n1Cc1cnc(C(F)(F)F)nc1)sc1c(O)c(Cl)ccc12 [Example 67, 7-chloro-2-(2-cyclopropyl-6-(trifluoromethyl)pyridin-3-yl)-8-hydroxy-3-((2-(trifluoromethyl)pyrimidin-5-yl)methyl)benzo[4,5]thieno[2,3-d]pyrimidin-4(3H)-one]
< 100	O=c1c2c(nc(-c3ccc(C(F)(F)F)nc3C3CC3)n1Cc1ccc(C(F)(F)F)nc1)sc1c(O)c(Cl)ccc12 [Example 68, 7-chloro-2-(2-cyclopropyl-6-(trifluoromethyl)pyridin-3-yl)-8-hydroxy-3-((6-(trifluoromethyl)pyridin-3-yl)methyl)benzo[4,5]thieno[2,3-d]pyrimidin-4(3H)-one]
< 100	CS(=O)(=O)c1ccc(-c2nc3sc4c(O)c(Cl)ccc4c3c(=O)n2Cc2ccc(C(F)(F)F)nc2)c(C2CC2)c1 [Example 69, 7-chloro-2-(2-cyclopropyl-4-(methylsulfonyl)phenyl)-8-hydroxy-3-((6-(trifluoromethyl)pyridin-3-yl)methyl)benzo[4,5]thieno[2,3-d]pyrimidin-4(3H)-one]
< 100	Cn1cc(Cn2c(-c3ccc(S(C)(=O)=O)cc3C3CC3)nc3sc4c(O)c(Cl)ccc4c3c2=O)ccc1=O [Example 70, 7-chloro-2-(2-cyclopropyl-4-(methylsulfonyl)phenyl)-8-hydroxy-3-((1-methyl-6-oxo-1,6-dihydropyridin-3-yl)methyl)benzo[4,5]thieno[2,3-d]pyrimidin-4(3H)-one]
< 100	COCCOc1ccc(-c2nc3sc4c(O)c(Cl)ccc4c3c(=O)n2Cc2cnco2)c(C2CC2)c1 [Example 74]
< 100	CS(=O)(=O)c1ccc(-c2nc3sc4c(O)c(Cl)ccc4c3c(=O)n2Cc2cnco2)c(C2CC2)c1 [Example 80]
< 100	CS(=O)(=O)c1ccc(-c2nc3sc4c(O)c(Cl)ccc4c3c(=O)n2Cc2cc(C(F)(F)F)no2)c(C2CC2)c1 [Example 81]
< 100	O=c1c2c(nc(-c3cc(F)c(Cl)cc3C3CC3)n1Cc1cc(C(F)(F)F)no1)sc1c(O)c(Cl)ccc12 [Example 84]
< 100	O=c1c2c(nc(-c3ccccc3C3CC3)n1Cc1cnco1)sc1c(O)c(Cl)ccc12 [Example 87]
< 100	COc1ccc(-c2nc3sc4c(O)c(Cl)ccc4c3c(=O)n2C[C@@H]2CC(=O)N(C)C2)c(C2CC2)c1 [Example 88]
< 100	O=c1c2c(nc(-c3ncc(F)cc3C3CC3)n1Cc1cnco1)sc1c(O)c(Cl)ccc12 [Example 89]
< 100	O=c1c2c(nc(-c3ncc(C(F)(F)F)cc3C3CC3)n1Cc1cnco1)sc1c(O)c(Cl)ccc12 [Example 90]
